According to PubChem BioAssay (NCI):
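Test compounds were applied to cells in 96-well plates for 48 hours at 5 doses. At the TGI there is no net growth.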

Experiments:
Experiment in all cases: NCI anticancer screen, dose series, 48 h
HCT-116 colon = system: HCT-116 colon
SK-OV-3 ovarian = system: SK-OV-3 ovarian
U251 CNS = system: U251 CNS
MDA-MB-231 breast = system: MDA-MB-231 breast
SW-620 colon = system: SW-620 colon
HCT-15 colon = system: HCT-15 colon
SK-MEL-2 melanoma = system: SK-MEL-2 melanoma
HOP-92 NSCLC = system: HOP-92 NSCLC
T-47D breast = system: T-47D breast
SF-295 CNS = system: SF-295 CNS
NCI-H23 lung = system: NCI-H23 lung
HL-60(TB) leukemia = system: HL-60(TB) leukemia
SNB-75 CNS = system: SNB-75 CNS
SNB-19 CNS = system: SNB-19 CNS
DU-145 prostate = system: DU-145 prostate
EKVX NSCLC = system: EKVX NSCLC
SK-MEL-5 melanoma = system: SK-MEL-5 melanoma
RPMI-8226 leukemia = system: RPMI-8226 leukemia
MALME-3M melanoma = system: MALME-3M melanoma
OVCAR-4 ovarian = system: OVCAR-4 ovarian
MOLT-4 leukemia = system: MOLT-4 leukemia
NCI-H522 lung = system: NCI-H522 lung
M14 melanoma = system: M14 melanoma
MDA-N = system: MDA-N
A498 renal = system: A498 renal
MCF7 breast = system: MCF7 breast
UO-31 renal = system: UO-31 renal
ACHN renal = system: ACHN renal
OVCAR-8 ovarian = system: OVCAR-8 ovarian
KM12 colon = system: KM12 colon
MDA-MB-435 = system: MDA-MB-435
HCC-2998 colon = system: HCC-2998 colon
SR leukemia = system: SR leukemia
HOP-62 NSCLC = system: HOP-62 NSCLC
NCI-H226 lung = system: NCI-H226 lung
COLO 205 colon = system: COLO 205 colon
A549 NSCLC = system: A549 NSCLC
SN12C renal = system: SN12C renal
SK-MEL-28 melanoma = system: SK-MEL-28 melanoma
BT-549 breast = system: BT-549 breast
CCRF-CEM leukemia = system: CCRF-CEM leukemia
786-0 renal = system: 786-0 renal
HS 578T breast = system: HS 578T breast
TK-10 renal = system: TK-10 renal
SF-268 CNS = system: SF-268 CNS
NCI/ADR-RES ovarian = system: NCI/ADR-RES ovarian
CAKI-1 renal = system: CAKI-1 renal
OVCAR-3 ovarian = system: OVCAR-3 ovarian
PC-3 prostate = system: PC-3 prostate
UACC-257 melanoma = system: UACC-257 melanoma
K-562 leukemia = system: K-562 leukemia
NCI-H460 lung = system: NCI-H460 lung
RXF 393 renal = system: RXF 393 renal
SF-539 CNS = system: SF-539 CNS
IGROV1 ovarian = system: IGROV1 ovarian
UACC-62 melanoma = system: UACC-62 melanoma
HT29 colon = system: HT29 colon
LOX IMVI melanoma = system: LOX IMVI melanoma
OVCAR-5 ovarian = system: OVCAR-5 ovarian

Structure (SMILES): CN1CCc2ccccc2C1Cc1ccccc1NC(=O)c1sc2ccccc2c1Cl (stereo not drawn)
- TGI (HCT-116 colon): > 100 µM
- TGI (SK-OV-3 ovarian): > 100 µM
- TGI (U251 CNS): > 100 µM
- TGI (MDA-MB-231 breast): > 100 µM
- TGI (SW-620 colon): > 100 µM
- TGI (HCT-15 colon): > 100 µM
- TGI (SK-MEL-2 melanoma): > 100 µM
- TGI (HOP-92 NSCLC): > 100 µM
- TGI (T-47D breast): > 100 µM
- TGI (SF-295 CNS): > 100 µM
- TGI (NCI-H23 lung): > 100 µM
- TGI (HL-60(TB) leukemia): > 100 µM
- TGI (SNB-75 CNS): > 100 µM
- TGI (SNB-19 CNS): > 100 µM
- TGI (DU-145 prostate): > 100 µM
- TGI (EKVX NSCLC): > 100 µM
- TGI (SK-MEL-5 melanoma): > 100 µM
- TGI (RPMI-8226 leukemia): > 100 µM
- TGI (MALME-3M melanoma): > 100 µM
- TGI (OVCAR-4 ovarian): > 100 µM
- TGI (MOLT-4 leukemia): > 100 µM
- TGI (NCI-H522 lung): > 100 µM
- TGI (M14 melanoma): > 100 µM
- TGI (MDA-N): > 100 µM
- TGI (A498 renal): > 100 µM
- TGI (MCF7 breast): > 100 µM
- TGI (UO-31 renal): > 100 µM
- TGI (ACHN renal): > 100 µM
- TGI (OVCAR-8 ovarian): > 100 µM
- TGI (KM12 colon): > 100 µM
- TGI (MDA-MB-435): > 100 µM
- TGI (HCC-2998 colon): > 100 µM
- TGI (SR leukemia): > 100 µM
- TGI (HOP-62 NSCLC): > 100 µM
- TGI (NCI-H226 lung): > 100 µM
- TGI (COLO 205 colon): > 100 µM
- TGI (A549 NSCLC): > 100 µM
- TGI (SN12C renal): > 100 µM
- TGI (SK-MEL-28 melanoma): > 100 µM
- TGI (BT-549 breast): > 100 µM
- TGI (CCRF-CEM leukemia): > 100 µM
- TGI (786-0 renal): > 100 µM
- TGI (HS 578T breast): > 100 µM
- TGI (TK-10 renal): > 100 µM
- TGI (SF-268 CNS): > 100 µM
- TGI (NCI/ADR-RES ovarian): > 100 µM
- TGI (CAKI-1 renal): > 100 µM
- TGI (OVCAR-3 ovarian): > 100 µM
- TGI (PC-3 prostate): > 100 µM
- TGI (UACC-257 melanoma): > 100 µM
- TGI (K-562 leukemia): > 100 µM
- TGI (NCI-H460 lung): > 100 µM
- TGI (RXF 393 renal): > 100 µM
- TGI (SF-539 CNS): > 100 µM
- TGI (IGROV1 ovarian): > 100 µM
- TGI (UACC-62 melanoma): > 100 µM

Structure (SMILES): Cc1cc(C)c(/C=C2\C(=O)Nc3ccccc32)[nH]1
- TGI (HCT-116 colon): > 100 µM
- TGI (SK-OV-3 ovarian): > 100 µM
- TGI (U251 CNS): > 100 µM
- TGI (MDA-MB-231 breast): > 100 µM
- TGI (SW-620 colon): > 100 µM
- TGI (HCT-15 colon): > 100 µM
- TGI (SK-MEL-2 melanoma): > 100 µM
- TGI (HOP-92 NSCLC): > 100 µM
- TGI (T-47D breast): > 100 µM
- TGI (SF-295 CNS): > 100 µM
- TGI (NCI-H23 lung): > 100 µM
- TGI (HL-60(TB) leukemia): > 34.1 µM
- TGI (SNB-75 CNS): > 100 µM
- TGI (SNB-19 CNS): > 100 µM
- TGI (DU-145 prostate): > 100 µM
- TGI (EKVX NSCLC): > 100 µM
- TGI (SK-MEL-5 melanoma): > 100 µM
- TGI (RPMI-8226 leukemia): > 100 µM
- TGI (MALME-3M melanoma): > 100 µM
- TGI (OVCAR-4 ovarian): > 100 µM
- TGI (MOLT-4 leukemia): > 100 µM
- TGI (NCI-H522 lung): > 100 µM
- TGI (M14 melanoma): > 100 µM
- TGI (MDA-N): > 100 µM
- TGI (A498 renal): > 100 µM
- TGI (HT29 colon): > 100 µM
- TGI (MCF7 breast): > 100 µM
- TGI (UO-31 renal): > 100 µM
- TGI (ACHN renal): > 100 µM
- TGI (OVCAR-8 ovarian): > 100 µM
- TGI (LOX IMVI melanoma): > 100 µM
- TGI (MDA-MB-435): > 100 µM
- TGI (HCC-2998 colon): > 100 µM
- TGI (SR leukemia): > 100 µM
- TGI (HOP-62 NSCLC): > 100 µM
- TGI (NCI-H226 lung): > 100 µM
- TGI (OVCAR-5 ovarian): > 100 µM
- TGI (COLO 205 colon): > 100 µM
- TGI (A549 NSCLC): > 100 µM
- TGI (SN12C renal): > 100 µM
- TGI (SK-MEL-28 melanoma): > 100 µM
- TGI (BT-549 breast): > 100 µM
- TGI (CCRF-CEM leukemia): > 100 µM
- TGI (786-0 renal): > 100 µM
- TGI (HS 578T breast): > 100 µM
- TGI (TK-10 renal): > 100 µM
- TGI (SF-268 CNS): > 100 µM
- TGI (NCI/ADR-RES ovarian): > 100 µM
- TGI (CAKI-1 renal): > 100 µM
- TGI (OVCAR-3 ovarian): > 100 µM
- TGI (PC-3 prostate): > 100 µM
- TGI (UACC-257 melanoma): > 100 µM
- TGI (K-562 leukemia): > 100 µM
- TGI (NCI-H460 lung): > 100 µM
- TGI (RXF 393 renal): > 100 µM
- TGI (SF-539 CNS): > 100 µM
- TGI (UACC-62 melanoma): > 100 µM
